This passage reports IC50 and inhibition results from patent US10689362B2, “Quinoxaline compounds as type III receptor tyrosine kinase inhibitors” (Development Center for Biotechnology, priority 2016, dated 2020).

The subject of assay [1] is Kasumi-1 human acute myeloid leukemia cell with c-KIT N822K activating mutation. The assay can be described thus: Kasumi-1 cell proliferation assay (CellTiter-96). The assay is classed as cell-based. To be noted: Cytotoxicity, Kasumi-1 cells, 72 hours. A digest of the protocol: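 After 72 h of treatment with a compound dilution series, growth of c-KIT N822K-driven Kasumi-1 cells (64000 per well, plated the day before) was read as 490 nm absorbance. This followed a 4 h incubation with CellTiter96 AQueous One reagent.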

A further assay deals with CSF-1R kinase (Homo sapiens (Human), UniProt P07333). Nature of the assay: CSF-1R kinase assay (AlphaScreen). The assay is classed as biochemical. To be noted: class symbol. The procedure: Inhibition of CSF-1R kinase activity by a test compound disclosed herein was estimated by AlphaScreen (PerkinElmer). […] Reactions were incubated at 30° C. for 45 min and stopped by adding 5 μL of 50 mM EDTA. Analysis of resulting product using an AlphaScreen kit, and counted with Enspire Alpha (PerkinElmer). […] The IC50 values of quinoxaline compounds of this invention against CSF-1R kinase were determined using the GraphPad Prism 5 software.
Background: In Alpha technology, singlet oxygen from a donor bead excites a nearby acceptor bead.

The test system of assay [2] is CSF-1-dependent M-NFS-60 mouse myeloid leukemia cell. Nature of the assay: M-NFS-60 cell proliferation assay (CellTiter-96). Type of assay: cell-based. To be noted: Cytotoxicity, M-NFS-60 cells, 72 hours. A digest of the protocol: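 Growth inhibition was measured as absorbance at 490 nm after 4 h with CellTiter 96 AQueous One reagent. Beforehand, M-NFS-60 cells (2000/well, CSF-1-dependent) were treated with a compound dilution series for 72 h following overnight plating at 37 °C, 5% CO2.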

The target in a further assay is c-KIT kinase (Homo sapiens (Human), UniProt P10721). The assay can be described thus: c-KIT kinase assay (radiometric). Type of assay: biochemical. The note with it: class symbol. A digest of the protocol:
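Recombinant c-Kit (20 ng) with 2 μg Poly-(Glu4:Tyr1) in MOPS pH 7.0 buffer with MgCl2/MnCl2, 10 μM ATP plus [^33P]-ATP, 4% DMSO final, 60 min at 30° C. Stopped with phosphoric acid, filter-captured and scintillation counted; IC50 from curve fit.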

Assay [3] deals with MV4-11 human acute myeloid leukemia cell with FLT3-ITD mutation. Nature of the assay: MV4-11 cell proliferation assay (CellTiter-96). The assay is classed as cell-based. To be noted: Cytotoxicity, MV4-11 cells, 72 hours. In a few lines: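 Growth inhibition read as absorbance at 490 nm after 4 hours with CellTiter96 AQueous One reagent. Before that, FLT3-ITD-dependent MV4-11 cells (6500 cells/well, overnight at 37° C., 5% CO2) received a rising compound concentration series for 72 hours.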

Assay [4] deals with osteoclast precursors (osteoclast differentiation). The assay can be described thus: Osteoclast tartrate-resistant acid phosphatase assay. To be noted: 168 h, at 1 μM treatment, 7 days, RANKL and M-CSF, read-out: inhibition activity against osteoclast differentiation. Type of assay: cell-based. In a few lines:
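Differentiation inhibition was scored at 1 μM compound in duplicate, using supernatant TRAP activity read at 550 nm with an acid phosphatase kit.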

The target of a further assay is PDGFRβ kinase (Homo sapiens (Human), UniProt P09619). Nature of the assay: PDGFRβ kinase assay (radiometric). Type of assay: biochemical. To be noted: bound. A digest of the protocol:
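Radiometric assay: recombinant PDGFRβ with poly(Glu4:Tyr1) in MOPS pH 7.0 buffer containing Mg2+/Mn2+, 10 μM ATP plus [33P]-ATP, and compound at 4% DMSO final. Incubated 60 min at 30° C, stopped with phosphoric acid, filter-captured and scintillation-counted. IC50 from curve fitting.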

For assay [5], the system named is THP-1 human acute monocytic leukemia cell harboring NRAS G12D mutation. The assay can be described thus: THP-1 cell proliferation assay (counter screen, CellTiter-96). Type of assay: cell-based. To be noted: Cytotoxicity, THP-1 cells (counter screen), 72 hours. A digest of the protocol: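 Growth inhibition read as 490 nm absorbance after 4 h with CellTiter96 AQueous One reagent, following 72 h compound exposure at rising concentrations. THP-1 (NRAS G12D) cells plated at 5000 per well and left overnight at 37 °C, 5% CO2 before dosing.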

The next assay deals with FLT3 kinase (Homo sapiens (Human), UniProt P36888). Nature of the assay: FLT3 kinase assay (radiometric). The assay is classed as biochemical. A digest of the protocol:
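Recombinant FLT3 (5 ng) phosphorylating poly(Glu4:Tyr1) (2 μg) with 10 μM ATP plus [^33P]-ATP in MOPS pH 7.0 buffer, 4% DMSO final, 60 min at 30° C. Reaction stopped with phosphoric acid, filter-captured and scintillation-counted; IC50 derived from dose-response.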

Each structure is given as a SMILES string.

c-KIT kinase, sequence (P10721 26-976): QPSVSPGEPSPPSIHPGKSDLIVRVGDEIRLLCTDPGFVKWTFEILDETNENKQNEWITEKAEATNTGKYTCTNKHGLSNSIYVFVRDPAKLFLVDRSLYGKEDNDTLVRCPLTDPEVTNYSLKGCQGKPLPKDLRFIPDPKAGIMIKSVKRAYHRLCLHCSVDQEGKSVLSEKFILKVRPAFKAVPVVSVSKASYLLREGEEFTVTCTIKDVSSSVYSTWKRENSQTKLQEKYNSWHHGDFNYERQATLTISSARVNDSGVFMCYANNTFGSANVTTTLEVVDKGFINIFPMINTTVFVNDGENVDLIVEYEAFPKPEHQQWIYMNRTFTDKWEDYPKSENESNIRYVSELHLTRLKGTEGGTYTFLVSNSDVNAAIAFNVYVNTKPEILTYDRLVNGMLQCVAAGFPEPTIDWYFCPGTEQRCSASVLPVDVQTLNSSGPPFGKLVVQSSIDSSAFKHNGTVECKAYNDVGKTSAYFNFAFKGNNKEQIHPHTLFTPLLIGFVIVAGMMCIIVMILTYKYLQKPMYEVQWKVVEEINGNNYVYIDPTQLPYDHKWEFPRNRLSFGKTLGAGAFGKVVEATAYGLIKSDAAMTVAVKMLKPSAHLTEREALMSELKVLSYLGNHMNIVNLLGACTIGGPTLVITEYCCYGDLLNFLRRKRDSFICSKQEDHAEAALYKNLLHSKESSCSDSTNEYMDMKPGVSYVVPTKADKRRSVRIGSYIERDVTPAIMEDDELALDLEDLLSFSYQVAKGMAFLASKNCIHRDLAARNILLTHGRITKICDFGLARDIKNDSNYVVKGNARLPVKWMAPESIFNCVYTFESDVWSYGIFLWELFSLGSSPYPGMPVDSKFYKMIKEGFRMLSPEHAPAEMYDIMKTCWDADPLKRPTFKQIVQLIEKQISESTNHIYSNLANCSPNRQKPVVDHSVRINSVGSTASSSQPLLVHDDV
FLT3 kinase, sequence (P36888 27-993): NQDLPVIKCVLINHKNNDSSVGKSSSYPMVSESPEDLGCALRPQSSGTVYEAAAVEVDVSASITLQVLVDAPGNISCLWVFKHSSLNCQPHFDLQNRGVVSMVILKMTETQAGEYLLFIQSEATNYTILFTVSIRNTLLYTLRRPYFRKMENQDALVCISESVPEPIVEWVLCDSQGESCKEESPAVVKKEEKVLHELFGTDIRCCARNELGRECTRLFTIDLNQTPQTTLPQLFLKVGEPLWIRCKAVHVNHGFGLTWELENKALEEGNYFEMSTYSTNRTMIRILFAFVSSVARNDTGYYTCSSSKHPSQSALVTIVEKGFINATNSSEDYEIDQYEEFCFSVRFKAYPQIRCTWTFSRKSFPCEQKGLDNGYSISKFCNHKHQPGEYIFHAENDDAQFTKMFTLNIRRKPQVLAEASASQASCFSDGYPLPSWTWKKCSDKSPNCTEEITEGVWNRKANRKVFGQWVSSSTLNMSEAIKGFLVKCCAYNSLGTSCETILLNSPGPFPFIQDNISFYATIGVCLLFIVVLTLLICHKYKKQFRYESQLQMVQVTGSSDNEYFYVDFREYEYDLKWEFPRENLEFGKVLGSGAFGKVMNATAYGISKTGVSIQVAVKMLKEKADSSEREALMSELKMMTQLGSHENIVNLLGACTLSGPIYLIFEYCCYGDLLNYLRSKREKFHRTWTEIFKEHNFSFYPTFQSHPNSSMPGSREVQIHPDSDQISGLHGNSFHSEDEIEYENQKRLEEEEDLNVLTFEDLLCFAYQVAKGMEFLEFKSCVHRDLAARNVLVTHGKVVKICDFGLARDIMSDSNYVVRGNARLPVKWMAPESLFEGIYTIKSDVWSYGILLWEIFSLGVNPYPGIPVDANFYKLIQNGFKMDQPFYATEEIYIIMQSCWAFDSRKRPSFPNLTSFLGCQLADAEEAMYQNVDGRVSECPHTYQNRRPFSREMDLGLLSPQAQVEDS
PDGFRβ kinase, sequence (P09619 33-1106): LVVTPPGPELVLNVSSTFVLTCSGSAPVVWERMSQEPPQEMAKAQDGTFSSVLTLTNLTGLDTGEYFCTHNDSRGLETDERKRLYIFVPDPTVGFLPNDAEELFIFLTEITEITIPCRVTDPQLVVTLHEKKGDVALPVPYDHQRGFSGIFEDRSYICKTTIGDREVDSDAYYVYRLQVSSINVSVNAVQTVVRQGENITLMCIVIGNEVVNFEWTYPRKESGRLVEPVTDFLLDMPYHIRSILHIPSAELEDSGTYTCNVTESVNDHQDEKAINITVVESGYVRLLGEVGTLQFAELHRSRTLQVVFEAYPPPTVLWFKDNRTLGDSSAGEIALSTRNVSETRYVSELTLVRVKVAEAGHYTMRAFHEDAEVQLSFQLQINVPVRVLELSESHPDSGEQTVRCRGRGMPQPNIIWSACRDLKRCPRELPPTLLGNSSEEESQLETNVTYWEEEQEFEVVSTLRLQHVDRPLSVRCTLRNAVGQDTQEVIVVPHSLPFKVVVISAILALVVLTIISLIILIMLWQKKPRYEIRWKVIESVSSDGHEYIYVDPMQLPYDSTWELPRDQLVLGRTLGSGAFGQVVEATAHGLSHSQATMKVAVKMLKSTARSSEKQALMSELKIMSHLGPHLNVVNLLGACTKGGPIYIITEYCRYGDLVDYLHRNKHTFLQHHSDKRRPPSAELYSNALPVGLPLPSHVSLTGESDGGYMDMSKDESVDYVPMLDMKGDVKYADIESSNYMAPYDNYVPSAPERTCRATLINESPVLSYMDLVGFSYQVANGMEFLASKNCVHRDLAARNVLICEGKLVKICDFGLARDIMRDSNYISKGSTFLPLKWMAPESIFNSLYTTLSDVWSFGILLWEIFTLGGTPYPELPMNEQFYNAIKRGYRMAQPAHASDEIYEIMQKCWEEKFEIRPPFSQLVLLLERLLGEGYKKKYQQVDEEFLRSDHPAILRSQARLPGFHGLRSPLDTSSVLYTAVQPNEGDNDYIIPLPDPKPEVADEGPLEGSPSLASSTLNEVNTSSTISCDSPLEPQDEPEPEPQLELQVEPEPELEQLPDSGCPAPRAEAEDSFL
CSF-1R kinase, sequence (P07333 20-972): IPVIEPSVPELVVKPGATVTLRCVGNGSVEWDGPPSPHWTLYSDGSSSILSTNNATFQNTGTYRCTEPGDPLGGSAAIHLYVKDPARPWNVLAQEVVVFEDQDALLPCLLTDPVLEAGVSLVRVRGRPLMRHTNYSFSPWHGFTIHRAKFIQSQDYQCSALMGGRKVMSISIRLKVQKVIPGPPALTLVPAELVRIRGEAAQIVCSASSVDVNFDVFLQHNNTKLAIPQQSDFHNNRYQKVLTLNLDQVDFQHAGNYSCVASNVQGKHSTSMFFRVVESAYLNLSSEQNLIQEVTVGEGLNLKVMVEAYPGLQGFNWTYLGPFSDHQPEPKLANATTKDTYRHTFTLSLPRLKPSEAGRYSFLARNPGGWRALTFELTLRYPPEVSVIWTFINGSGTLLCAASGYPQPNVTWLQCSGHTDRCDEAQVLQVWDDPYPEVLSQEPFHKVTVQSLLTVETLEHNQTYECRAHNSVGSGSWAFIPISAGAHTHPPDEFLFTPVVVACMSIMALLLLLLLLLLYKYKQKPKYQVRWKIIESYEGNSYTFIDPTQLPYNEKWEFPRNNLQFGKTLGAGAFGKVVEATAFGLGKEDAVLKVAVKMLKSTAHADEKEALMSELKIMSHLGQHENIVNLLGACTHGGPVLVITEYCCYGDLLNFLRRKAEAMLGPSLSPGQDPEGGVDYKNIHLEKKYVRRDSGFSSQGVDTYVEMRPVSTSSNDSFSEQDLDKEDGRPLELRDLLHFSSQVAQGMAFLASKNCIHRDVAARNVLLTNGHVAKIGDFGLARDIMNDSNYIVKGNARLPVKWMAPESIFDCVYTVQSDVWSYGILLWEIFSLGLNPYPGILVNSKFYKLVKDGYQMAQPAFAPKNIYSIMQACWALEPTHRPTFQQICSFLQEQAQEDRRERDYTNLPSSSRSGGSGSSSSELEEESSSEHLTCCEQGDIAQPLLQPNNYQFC

Take `COc1cc(N(C)c2ccc3ncc(N4CCOCC4)nc3c2C#N)ccc1OCc1ccc(C)nc1` [Example 129, 6-((3-methoxy-4-((6-methylpyridin-3-yl)methoxy)phenyl)(methyl)amino)-3-morpholinoquinoxaline-5-carbonitrile]: the IC50 (as a rule, the concentration at which inhibition is half-maximal) in [1] was 1000 to 10000 nM; against CSF-1R kinase it was less than 100 nM; in assay [2], 300 to 1000 nM; against c-KIT kinase it was 300 to 1000 nM; in assay [3], 1000 to 10000 nM; on PDGFRβ kinase, greater than 1000 nM. For the same molecule, the IC50 in assay [5] is greater than 10000 nM; against FLT3 kinase (bound), greater than 1000 nM. In addition, in assay [4], the inhibition (in general, the change of the read-out against control, counted positive when it falls) at 1 µM is greater than 50%.

`CNc1cnc2ccc(Nc3ccc(OCc4ccc(OC)cc4)c(OC)c3)c(C#N)c2n1` [Example 12, 6-((3-methoxy-4-((4-methoxybenzyl)oxy)phenyl)amino)-3-(methylamino)quinoxaline-5-carbonitrile]: the IC50 is 300 to 1000 nM in [1]; less than 100 nM against CSF-1R kinase; less than 300 nM in [2]; less than 100 nM on c-KIT kinase; greater than 10000 nM in [3]; greater than 1000 nM against PDGFRβ kinase. Further, the values for the IC50 (in assay [5]; against FLT3 kinase (bound)) were greater than 10000 nM and greater than 1000 nM, respectively. Also, the inhibition at 1 µM in assay [4] is greater than 50%.

With `COc1ccc(COc2ccc(Nc3ccc4ncc(N5CCOCC5)nc4c3C#N)cc2OC)cc1C#N` [Example 96, 6-((4-((3-cyano-4-methoxybenzyl)oxy)-3-methoxy-phenyl)amino)-3-morpholinoquinoxaline-5-carbonitrile], the IC50 is greater than 10000 nM in [1]; less than 100 nM against CSF-1R kinase; less than 300 nM in assay [2]; 100 to 300 nM against c-KIT kinase; 1000 to 10000 nM in assay [3]; greater than 1000 nM on PDGFRβ kinase. Further, the IC50 was greater than 10000 nM in assay [5] and greater than 1000 nM against FLT3 kinase (bound). The inhibition at 1 µM in [4] was greater than 50%.

For `COc1ccc(COc2ccc(Nc3ccc4ncc(N5CCNCC5)nc4c3C#N)cc2OC)cc1` [Example 90, 6-((3-methoxy-4-((4-methoxybenzyl)oxy)phenyl)amino)-3-(piperazin-1-yl)quinoxaline-5-carbonitrile], the IC50 was 300 to 1000 nM in assay [1]; less than 100 nM on CSF-1R kinase; less than 300 nM in assay [2]; less than 100 nM against c-KIT kinase; greater than 10000 nM in assay [3]; greater than 1000 nM against PDGFRβ kinase. For the same molecule, the IC50 in assay [5] was greater than 10000 nM; at FLT3 kinase (bound), greater than 1000 nM. Also, the inhibition at 1 µM in assay [4] is greater than 50%.

Consider `COc1cc(Nc2ccc3ncc(N4CCC4)nc3c2C#N)ccc1OCc1cccc(C#N)c1` [Example 87, 3-(azetidin-1-yl)-6-((4-((3-cyanobenzyl)oxy)-3-methoxyphenyl)amino)quinoxaline-5-carbonitrile], for which the IC50 in [1] is 1000 to 10000 nM; against CSF-1R kinase, less than 100 nM; in [2], 300 to 1000 nM; against c-KIT kinase, 100 to 300 nM; in assay [3], greater than 10000 nM; at PDGFRβ kinase, greater than 1000 nM. Besides, the values for the IC50 (in assay [5]; against FLT3 kinase (bound)) were greater than 10000 nM and greater than 1000 nM, respectively. Moreover, in assay [4], the inhibition at 1 µM is greater than 50%.

On to `COc1ccc(COc2ccc(Nc3ccc4ncc(NC(C)C)nc4c3C#N)cc2OC)cc1` [Example 17, 3-(isopropylamino)-6-((3-methoxy-4-((4-methoxybenzyl)oxy)phenyl)amino)quinoxaline-5-carbonitrile], for which the IC50 in [1] was 300 to 1000 nM; against CSF-1R kinase it was less than 100 nM; in assay [2], less than 300 nM; on c-KIT kinase, less than 100 nM; in [3], 1000 to 10000 nM; against PDGFRβ kinase, greater than 1000 nM. The half-maximal inhibitory concentration (IC50) is greater than 10000 nM in [5] and greater than 1000 nM on FLT3 kinase (bound). The inhibition at 1 µM in assay [4] was greater than 50%.

As to `COc1cc(Nc2ccc3ncc(C4=CCOCC4)nc3c2C#N)ccc1OCc1ccc(C)nc1` [Example 113, 3-(3,6-dihydro-2H-pyran-4-yl)-6-((3-methoxy-4-((6-methylpyridin-3-yl)methoxy)phenyl)amino)quinoxaline-5-carbonitrile], the IC50 is 300 to 1000 nM in [1]; less than 100 nM on CSF-1R kinase; less than 300 nM in [2]; less than 100 nM against c-KIT kinase; 1000 to 10000 nM in [3]; greater than 1000 nM at PDGFRβ kinase. Moreover, the figures for the IC50 (in [5]; on FLT3 kinase (bound)) were greater than 10000 nM and greater than 1000 nM, respectively. In [4], the inhibition at 1 µM was greater than 50%.

As for `COCc1ccc(COc2ccc(Nc3ccc4ncc(N5CCOCC5)nc4c3C#N)cc2OC)nc1` [Example 125, 6-((3-methoxy-4-((5-(methoxymethyl)pyridin-2-yl)methoxy)phenyl)amino)-3-morpholinoquinoxaline-5-carbonitrile], the half-inhibitory concentration (IC50) in assay [1] was less than 300 nM; on CSF-1R kinase, less than 100 nM; in assay [2], 1000 to 10000 nM; against c-KIT kinase, less than 100 nM; in assay [3], greater than 10000 nM; on PDGFRβ kinase it was greater than 1000 nM. Also, the IC50 is greater than 10000 nM in [5] and greater than 1000 nM at FLT3 kinase (bound). In addition, in [4], the inhibition at 1 µM was greater than 50%.

For the molecule `COc1cc(Nc2ccc3ncc(N4CCOCC4)nc3c2C#N)ccc1OCc1ccc(C(C)C)nc1` [Example 103, 6-((4-((6-isopropylpyridin-3-yl)methoxy)-3-methoxyphenyl)amino)-3-morpholinoquinoxaline-5-carbonitrile], the half-inhibitory concentration (IC50) was less than 300 nM in assay [1]; less than 100 nM at CSF-1R kinase; less than 300 nM in assay [2]; less than 100 nM against c-KIT kinase; 1000 to 10000 nM in [3]; greater than 1000 nM at PDGFRβ kinase. Moreover, the IC50 in [5] is greater than 10000 nM; against FLT3 kinase (bound), greater than 1000 nM. The inhibition at 1 µM in assay [4] is greater than 50%.

Turning to `COc1ccc(COc2ccc(Nc3ccc4ncc(N5CCOCC5)nc4c3C#N)cc2OC)cn1` [Example 50, 6-((3-methoxy-4-((6-methoxypyridin-3-yl)methoxy)phenyl)amino)-3-morpholinoquinoxaline-5-carbonitrile], the IC50 in assay [1] was 300 to 1000 nM; on CSF-1R kinase, less than 100 nM; in [2], less than 300 nM; at c-KIT kinase, 100 to 300 nM; in [3], greater than 10000 nM; against PDGFRβ kinase it was greater than 1000 nM. Besides, the IC50 was greater than 10000 nM in assay [5] and greater than 1000 nM against FLT3 kinase (bound). For the same molecule, in assay [4], the inhibition at 1 µM is greater than 50%.

`COc1ccc(COc2ccc(Nc3ccc4ncc(N5CCOCC5)nc4c3C#N)c(F)c2)cc1` [Example 53, 6-((2-fluoro-4-((4-methoxybenzyl)oxy)phenyl)amino)-3-morpholinoquinoxaline-5-carbonitrile]: the IC50 in [1] was 1000 to 10000 nM; against CSF-1R kinase, less than 100 nM; in [2] it was 300 to 1000 nM; on c-KIT kinase, 300 to 1000 nM; in [3] it was less than 300 nM; at PDGFRβ kinase, greater than 1000 nM. Moreover, the IC50 in assay [5] was greater than 10000 nM; at FLT3 kinase (class symbol) it was 300 to 1000 nM. Further, the inhibition at 1 µM in [4] was greater than 50%.

For the molecule `COc1ccc(COc2ccc(Nc3ccc4ncc(N5CCNCC5)nc4c3C#N)cc2OC)cn1` [Example 59, 6-((3-methoxy-4-((6-methoxypyridin-3-yl)methoxy)phenyl)amino)-3-(piperazin-1-yl)quinoxaline-5-carbonitrile], the IC50 in assay [1] is 300 to 1000 nM; on CSF-1R kinase, less than 100 nM; in [2], less than 300 nM; at c-KIT kinase, 100 to 300 nM; in assay [3], 1000 to 10000 nM; on PDGFRβ kinase it was greater than 1000 nM. Besides, the results for the IC50 (in [5]; on FLT3 kinase (bound)) were 1000 to 10000 nM and greater than 1000 nM, respectively. For the same molecule, the inhibition at 1 µM in assay [4] was greater than 50%.
